Tests used:
[1] = Pupillometry (pupillary miosis) in healthy volunteers; type: in vivo, human; details: 3-60 mg, p>0.9
Description: (§1) Pulse oximetry and capnography data were collected continuously using a GE Carescape B650 monitoring system from 2 hours prior to dosing and until six hours after dosing, and thereafter at 12, 24, 48 and 72 hours post-dosing. […] Pupillary miosis was assessed by pupillometry.
Summary statistics (means, standard deviations, and coefficients of variation) were determined for each dose group for safety laboratory test data, ECG and pharmacokinetic parameters, and pharmacodynamic variables. Categorical variables were analysed using counts and percentages. Dose-proportionality of AUC and Cmax was assessed using linear regression. The effect of dose on pharmacodynamic parameter values over time was assessed using two-factor analysis of variance (ANOVA). Pairwise comparisons (with Tukey-Kramer adjustment) between each dose group to the placebo were conducted at each time point using the least squares estimates obtained from the ANOVA, using SAS Proc Mixed (SAS ver 6.0).

[2] = Cold pressor test in healthy volunteers; type: in vivo, human
Description: Analgesic effect was assessed based on duration of hand immersion in ice water and on visual analog scale (VAS) pain scores upon hand removal from the water bath.
(§2) Safety and tolerability of noribogaine were tested in the group of volunteers from Example 1. […] Safety evaluations included clinical monitoring, recording of adverse events (AEs), safety laboratory tests, vital signs, ECG telemetry from −2 h to 6 h after dosing, and 12-lead electrocardiograms (ECGs) up to 216 hours post-dosing.

[3] = Safety and tolerability of noribogaine in healthy humans; type: in vivo, human
Description: as §1, §2

[4] = Efficacy in opioid-dependent patients: time to resumption of OST and withdrawal scales (COWS, SOWS, OOWS); type: in vivo, human
Description: The efficacy of noribogaine in humans was evaluated in opioid-dependent participants in a randomized, placebo-controlled, double-blind trial. […] See U.S. application Ser. No. 14/214,157, filed Mar. 14, 2014 and Ser. No. 14/346,655, filed Mar. 21, 2014, which are incorporated herein by reference in their entireties.
Three cohorts of nine (9) subjects (6 administered noribogaine and 3 administered placebo in each cohort) were evaluated for tolerability, pharmacokinetics, and efficacy. Cohort 1 received a single dose of 60 mg noribogaine or placebo. Cohort 2 received a single dose of 120 mg noribogaine or placebo. Cohort 3 received a single dose of 180 mg noribogaine or placebo. […] Headaches were frequent in the placebo and 60 mg noribogaine treatment groups, but were attenuated in the 120 mg and 180 mg dose groups.
Patients were evaluated based on the Clinical Opiate Withdrawal Scale (COWS), Subjective Opiate Withdrawal Scale (SOWS), and Objective Opiate Withdrawal Scale (OOWS) scoring systems over the period of time between administration of noribogaine (or placebo) until resumption of OST. These scales are outlined in Guidelines for the Psychosocially Assisted Pharmacological Treatment of Opioid Dependence, World Health Organization, Geneva (2009), Annex 10, which is incorporated herein by reference in its entirety. The scales measure the intensity of withdrawal symptoms, based on clinical, subjective, and objective indicia.

[5] = Treatment emergent adverse events in opioid-dependent patients
[6] = Pharmacokinetics in opioid-dependent patients, Phase IB study, single dose; details: human, serum; for half-life / Vd/F: opioid-dependent patients
[7] = Pharmacokinetics of noribogaine in healthy volunteers, ascending single oral dose (plasma); details: mean, n = 6; for CL/F: fasted, plasma
[8] = 60 mg, mean ± SD, Cohort 1 (60 mg)
[9] = 120 mg, range, Cohort 2 (120 mg)
[10] = 180 mg, range, Cohort 3 (180 mg)
[11] = metabolite in plasma after single oral 30 mg noribogaine
[12] = metabolite in plasma after single oral 60 mg noribogaine

CC[C@H]1CC2C[C@H]3c4[nH]c5ccc(O)cc5c4CCN(C2)C13 [noribogaine]
pupil diameter, each dose group versus placebo (ANOVA, baseline adjusted) [1]: no statistically significant differences | duration of hand immersion, each dose group versus placebo (ANOVA) ([2]; ice water, p>0.9): no statistically significant differences | VAS pain scores, each dose group versus placebo (ANOVA) ([2]; upon hand removal, p=0.17): no statistically significant differences | adverse events reported ([3]; 3 mg dose group, by two subjects): five | adverse events reported ([3]; 10 mg dose group, single subject): one | adverse events reported ([3]; 30 mg dose group, single subject): one | intensity of adverse events ([3]; all dose groups, all resolved prior to study completion): mild-moderate | withdrawal symptoms (COWS, OOWS, SOWS), first six hours after dosing ([4]; 120 mg): fewer withdrawal symptoms than the other patients | time to resumption of OST, compared with untreated patients ([4]; 180 mg, also longer than 60 mg group): > 7 h | withdrawal symptoms (COWS, OOWS, SOWS), noribogaine versus placebo ([4]; 60, 120, 180 mg): Patients administered placebo generally experienced more withdrawal symptoms than patients who were administered noribogaine | headaches ([5]; 60 mg treatment group): frequent | headaches ([5]; 120 mg and 180 mg dose groups): attenuated | AUC ([6]; 60 mg): 1.12 to 2.55 µg·h/mL | AUC(0-t) ([6]; 60 mg): 1.09 to 2.53 µg·h/mL | Cmax ([6]; 60 mg): 0.0413 to 0.113 µg/mL | Tmax ([6]; 60 mg): 2.5 to 5 h | half-life [6, 8]: 29.3 ± 7.28 h | half-life ([6]; 60 mg, range, Cohort 1 (60 mg)): 18.3 to 37.3 h | Vd/F [6, 8]: 1440 ± 854 L | Vd/F ([6]; 60 mg, range, Cohort 1 (60 mg)): 620 to 2770 L | AUC ([6]; 120 mg): 1.6 to 5.77 µg·h/mL | AUC(0-t) ([6]; 120 mg): 1.56 to 5.64 µg·h/mL | Cmax ([6]; 120 mg): 0.139 to 0.23 µg/mL | Tmax ([6]; 120 mg): 0.98 to 4.02 h | half-life [6, 9]: 21.9 to 48.3 h | Vd/F [6, 9]: 824 to 5240 L | AUC ([6]; 180 mg): 3.73 to 12.3 µg·h/mL | AUC(0-t) ([6]; 180 mg): 3.72 to 10.4 µg·h/mL | Cmax ([6]; 180 mg): 0.205 to 0.338 µg/mL | Tmax ([6]; 180 mg): 3 to 8 h | half-life [6, 10]: 19.3 to 34.9 h | Vd/F [6, 10]: 581 to 1610 L | CL/F ([7]; single oral 3 mg): 41.4 L/h | CL/F ([7]; single oral 10 mg): 42.3 L/h | CL/F ([7]; single oral 30 mg): 46.9 L/h | CL/F ([7]; single oral 60 mg): 34.0 L/h

CC[C@H]1C[C@@H]2C[C@H]3c4[nH]c5ccc(OC6OC(C(=O)O)C(O)C(O)C6O)cc5c4CCN(C2)[C@@H]13 (stereo partly shown) [noribogaine glucuronide]
AUC0-216 [7, 11]: 0.0257 µg·h/mL | AUC0-∞ [7, 11]: 0.0258 µg·h/mL | Cmax [7, 11]: 0.0018 µg/mL | Tmax [7, 11]: 3.0 h | t1/2 [7, 11]: 20.6 h | AUC0-216 [7, 12]: 0.065 µg·h/mL | AUC0-∞ [7, 12]: 0.0671 µg·h/mL | Cmax [7, 12]: 0.0041 µg/mL | Tmax [7, 12]: 3.8 h | t1/2 [7, 12]: 23.1 h

Reference: patent US20150258104A1, “USE OF N[…] THE TREATMENT OF PAIN” (DemeRX, Inc., priority 2014, published 2015)
